Experimental data reported in publication PMC8131363 (Scientific Reports, 2021).
Like-named read-outs stand apart in the source and are kept apart here.

What was measured:
cCaSR [1] = target: T1, cCaSR (Felis catus, UniProt C7FF08)
T1 sequence (C7FF08 1-1081): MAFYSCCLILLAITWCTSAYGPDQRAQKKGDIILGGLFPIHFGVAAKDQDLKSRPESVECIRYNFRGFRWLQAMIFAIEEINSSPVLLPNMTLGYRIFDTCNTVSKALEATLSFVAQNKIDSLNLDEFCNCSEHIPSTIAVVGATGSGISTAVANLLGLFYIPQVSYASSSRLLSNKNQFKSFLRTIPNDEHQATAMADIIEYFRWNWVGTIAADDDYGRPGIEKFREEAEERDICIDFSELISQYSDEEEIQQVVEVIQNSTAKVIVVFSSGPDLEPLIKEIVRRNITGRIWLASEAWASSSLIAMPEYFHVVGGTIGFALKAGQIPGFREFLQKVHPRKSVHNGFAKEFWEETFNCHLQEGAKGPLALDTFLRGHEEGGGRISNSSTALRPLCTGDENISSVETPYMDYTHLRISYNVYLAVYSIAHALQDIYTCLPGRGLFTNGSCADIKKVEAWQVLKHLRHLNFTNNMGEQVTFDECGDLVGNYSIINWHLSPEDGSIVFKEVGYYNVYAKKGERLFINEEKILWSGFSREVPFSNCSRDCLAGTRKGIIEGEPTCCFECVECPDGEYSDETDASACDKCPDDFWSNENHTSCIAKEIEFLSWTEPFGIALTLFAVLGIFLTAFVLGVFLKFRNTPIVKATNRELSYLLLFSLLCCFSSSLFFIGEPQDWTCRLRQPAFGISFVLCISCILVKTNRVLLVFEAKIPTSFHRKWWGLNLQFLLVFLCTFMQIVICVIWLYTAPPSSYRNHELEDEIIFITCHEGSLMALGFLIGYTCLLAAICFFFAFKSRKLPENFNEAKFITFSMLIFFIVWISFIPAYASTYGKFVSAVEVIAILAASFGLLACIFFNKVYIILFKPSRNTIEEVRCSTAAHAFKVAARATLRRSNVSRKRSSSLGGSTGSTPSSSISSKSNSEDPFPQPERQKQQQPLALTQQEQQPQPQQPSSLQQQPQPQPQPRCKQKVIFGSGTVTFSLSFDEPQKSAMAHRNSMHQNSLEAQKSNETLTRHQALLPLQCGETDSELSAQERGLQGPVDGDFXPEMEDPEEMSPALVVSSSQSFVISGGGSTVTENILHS

cCaSR [2] = target: T1, cCaSR; assay: cCaSR PAM luminescence assay, double injection with 0.5 mM CaCl2, HEK293/T-REx/natClytin-cCaSR
[3] = Supplementary Table I, agonist assay, dash = no activity
[4] = Supplementary Table I, PAM assay, dash = no activity
[5] = read-out: EC50 PAM, Supplementary Table I, positive allosteric modulator, presence of Ca2+

Row | Compound | EC50 Ago (M) (cCaSR [1]; [3]) | EC50 PAM (M) (cCaSR [2]; [4]) | other results
1 | CC(C)C1NC(C(=O)O)Cc2c1[nH]c1ccccc21 (stereo not drawn) [1-isopropyl-2,3,4,9-tetrahydro-1H-pyrido[3,4-b]indole-3-carboxylic acid] | - | - | 
2 | N[C@]1(C(=O)O)C[C@H](C(=O)O)C1 [1s,3s-1-aminocyclobutane-1,3-dicarboxylic acid] |  | - | 
3 | NC(CCCC(N)C(=O)O)C(=O)O (stereo not drawn) [2,6-Diaminopimelic acid] | - | - | 
4 | NC(CCCCCCCCCC(=O)O)C(=O)O (stereo not drawn) [2-aminododecanedioic acid] | - | - | 
5 | COc1c(C)cc(C(=O)CC#N)cc1C [3,5-Dimethyl-4-methoxybenzoylacetonitrile] | - | - | 
6 | CO[C@H]1[C@H](O)[C@@H](CO)OC(O)[C@@H]1O (stereo partly drawn) [3-O-Methyl-D-glucopyranose] | - | - | 
7 | O=C(O)c1cc2c(cn1)[nH]c1ccccc12 [9H-pyrido[3,4-b]indole-3-carboxylic acid] | - | - | 
8 | CC(C)[C@H](N)P(=O)(O)O [(1R)-(+)-(1-Amino-2-methylpropyl)phosphonic acid] |  |  | EC50 Ago (M) (cCaSR [1]): -; EC50 PAM (M) (cCaSR [2]): -
9 | C[C@](N)(CC(=O)O)C(=O)O [(S)-a-Methylaspartic acid, (S)-α-Methylaspartic acid] | - | - | 
10 | Cc1ccc(C(C)(O)c2nc3ccccc3s2)c(C)c1 (stereo not drawn) [AC-265347, reference compound] | - |  | 
11 | O.O.[Ba+2].[Cl-].[Cl-] [Ba^2+, Barium chloride dihydrate] |  |  | EC50 PAM (M) (cCaSR [2]): -
12 | [Ba+2].[Cl-].[Cl-] [Ba^2+, Barium chloride dihydrate] |  |  | EC50 (cCaSR [1]): 1170 µM; EC50 (cCaSR [1]; read-out: EC50 Ago): 1170 µM; EC50 (cCaSR [1]; read-out: cCaSR activity): 1000 to 10000 µM
13 | NCCCCCN [Cadaverine] | - | - | 
14 | C[C@@H](N[C@H]1CCCC[C@@H]1NC(=O)c1ccc(Cl)cc1)c1cccc2ccccc12 [Calhex 231, reference compound] | - | - | 
15 | C[C@@H](NCc1cc2ccccc2[nH]1)c1cccc2ccccc12 [Calindol, reference compound] | - |  | 
16 | O=C([O-])[O-].O=C([O-])[O-].O=C([O-])[O-].[Ce+3].[Ce+3] [Cerium(III) carbonate] | - | - | 

Row | Compound | EC50 Ago (M) (cCaSR [1]; [3]) | EC50 PAM (M) (cCaSR [2]; [4]) | other results
17 | C[C@@H](NCCCc1cccc(C(F)(F)F)c1)c1cccc2ccccc12 [Cinacalcet, reference compound] | - |  | EC50 (cCaSR [2]): 0.746 µM
18 | N[C@@H](CSSC[C@H](N)C(=O)O)C(=O)O [Cystine (disufide)] | - | - | 
19 | OC[C@H]1OC(O)[C@H](O)[C@@H](O)[C@@H]1O (stereo partly drawn) [D-( +)-Glucose, D-(+)-Glucose] | - | - | 
20 | NC(N)=NCCC[C@@H](N)C(=O)O [D-Arginine] | - | - | 
21 | N[C@H](CC(=O)O)C(=O)O [D-Aspartic Acid] | - | - | 
22 | N[C@H](CCC(=O)O)C(=O)O [D-Glutamic acid] | - | - | 
23 | NCCCC[C@@H](N)C(=O)O [D-Lysine] | - | - | 
24 | O=P(O)(O)C(Cl)(Cl)P(=O)(O)O [Dichloromethylenediphosphonic acid] | - | - | 
25 | COc1cc(C(O)(c2nc3ccccc3s2)C(F)(F)F)c(OC)cc1N (stereo not drawn) [Enamine Screening - Z317045236] | - |  | EC50 (cCaSR [2]; [5]): 2.42 µM
26 | CC(=O)N1C=Cc2ccccc2C1CC(=O)NC(C)c1cccc(Br)c1 (stereo not drawn) [Enamine Screening - Z336933272] | - |  | EC50 (cCaSR [2]; [5]): 12.1 µM
27 | COC(=O)C(NC1CCc2c(F)cccc21)c1cccc(C#N)c1 (stereo not drawn) [Enamine Screening - Z1362199910] | - |  | EC50 (cCaSR [2]; [5]): 58.9 µM
28 | O=C(O)[C@@H]1C[C@@H](O)CN1 [Hydroxyproline] | - | - | 
29 | CN[C@H]1C[C@@H](N)[C@H](O)[C@@H](O[C@@H]2O[C@H](CO)[C@H](O)[C@@H]3OC4(O[C@H]23)O[C@H]([C@@H](N)CO)[C@H](O)[C@H](O)[C@H]4O)[C@@H]1O (stereo partly drawn) [Hygromycin B, reference compound] | - | - | 
30 | N[C@@H](CCP(=O)(O)O)C(=O)O [L-2-Amino-4-phosphonobutyric acid] | - | - | 
31 | N=C(N)NCCC[C@H](N)C(=O)O [L-Arginine] |  |  | EC50 Ago (M) (cCaSR [1]): -; EC50 PAM (M) (cCaSR [2]): -
32 | NCCNCCNCCN [Triethylenetetramine] |  |  | EC50 Ago (M) (cCaSR [1]): -

The next lines start with results.

Row | EC50 Ago (M) (cCaSR [1]; [3]) | EC50 PAM (M) (cCaSR [2]; [4]) | Compound | other results
33 | - |  | CC(NC1CCc2c(F)cc(Br)cc21)c1ccncc1 (stereo not drawn) [Enamine Screening - Z1436888168] | EC50 (cCaSR [2]; [5]): 45.7 µM
34 | - |  | CC(NCC1Cc2ccccc2O1)c1ccc2ccccc2n1 (stereo not drawn) [Enamine Screening - Z1437387381] | EC50 (cCaSR [2]; [5]): 9.01 µM
35 | - |  | CC(NCC1CCCN(C)C1c1cccs1)c1cc(Cl)c(N)c(Cl)c1 (stereo not drawn) [Enamine Screening - Z1532507755] | EC50 (cCaSR [2]; [5]): 8.68 µM
36 | - | - | COc1ccc(C2C(CNC(C)c3ccncc3)CCN2C)cc1 (stereo not drawn) [Enamine Screening - Z1563602968] | 
37 | - |  | OCC(CNC1CCCOc2cc(Cl)ccc21)Cc1ccccn1 (stereo not drawn) [Enamine Screening - Z1589915397] | EC50 (cCaSR [2]; [5]): 122 µM
38 | - |  | Cc1ccc(C(C)NC(C)c2cc3ccccc3[nH]2)cc1C (stereo not drawn) [Enamine Screening - Z1592615858] | EC50 (cCaSR [2]; [5]): 1.92 µM
39 | - |  | c1ccc(C2CCN(C3CCCc4ccccc43)C2)cc1 (stereo not drawn) [Enamine Screening - Z1627256025] | EC50 (cCaSR [2]; [5]): 797 µM
40 | - |  | COc1ccc(CCC(C)NC2CCOc3ccccc32)cc1O (stereo not drawn) [Enamine Screening - Z1857407854] | EC50 (cCaSR [2]; [5]): 5.5 µM
41 |  | - | [Gd+3] [Gd^3+, Gadolinium ion Gd^3+] | EC50 (cCaSR [1]; agonist assay, stable inducible cCaSR line, > 0.01 M = maximal response not reached): 295 µM; EC50 (cCaSR [1]; read-out: EC50 Ago, Supplementary Table I, agonist assay, > 0.01 M = maximal response not reached): 295 µM; EC50 (cCaSR [1]; read-out: cCaSR activity, agonist assay, stable inducible cCaSR line, at least three wells): < 1000 µM
42 | - | - | NCC(=O)O [Glycine] | 
43 | - | - | C1N2CN3CN1CN(C2)C3 [Hexamethylenetetramine] | 
44 | - | - | NC[C@H]1O[C@H](O[C@H]2[C@H](O)[C@@H](O[C@H]3O[C@H](CO)[C@@H](O)[C@H](N)[C@H]3O)[C@H](N)C[C@@H]2N)[C@H](O)[C@@H](O)[C@@H]1O [Kanamycin solution, Kanamycin, reference compound] | 
45 | - | - | C[C@H](N)C(=O)O [L-Alanine] | 
46 | - | - | COC(=O)[C@@H](N)CCCN=C(N)N [L-Arginine methyl ester] | 
47 | - | - | NC(=O)C[C@H](N)C(=O)O [L-Asparagine] | 
48 | - | - | N[C@@H](CS)C(=O)O [L-Cysteine] | 
49 |  | - | NC[C@@H]1O[C@H](O[C@H]2[C@@H](O)[C@H](O[C@@H]3[C@@H](O)[C@H](N)C[C@H](N)[C@H]3O[C@H]3O[C@H](CN)[C@@H](O)[C@H](O)[C@H]3N)O[C@@H]2CO)[C@H](N)[C@@H](O)[C@@H]1O [Neomycin, reference compound] | 
50 |  | - | C[C@@H](O)C(=O)SC[C@H](NC(=O)CC[C@H](N)C(=O)O)C(=O)NCC(=O)O [S-Lactoylglutathione] | 
51 |  | - | NC(=O)CC[C@H](NC(=O)[C@H](CCC(=O)O)NC(=O)CC[C@H](N)C(=O)O)C(=O)O [γ-Glu-Glu-Gln] | 
52 |  | - | N[C@@H](CCC(=O)N[C@@H](CCC(=O)O)C(=O)N[C@@H](CCC(=O)O)C(=O)O)C(=O)O [γ-Glu-Glu-Glu] | 
53 |  | - | Poly-L-ornithine | 
